Measured values published in ChEMBL document CHEMBL1121535, “Stereochemical requirements for cannabinoid activity” (J Med Chem, 1980).
Calls of active or inactive are those of the source. No cut-off for these calls is given here.

Tests used:
Format in all cases: functional, organism-based
Details in all cases: Cercopithecidae
[1] = tested on: Monkey; test: The compound was evaluated for the rating of psychotropic effects in rhesus monkey at a dose of 1 mg/Kg; value is (++) stupor, ataxia, suppression of motor activity, full ptosis
[2] = tested on: Monkey; test: The compound was evaluated for the rating of psychotropic effects in rhesus monkey at a dose of 0.25 mg/Kg; value is (-) No change
[3] = tested on: Monkey; test: The compound was evaluated for the rating of psychotropic effects in rhesus monkey at a dose of 0.5 mg/Kg; value is (+) drowsiness, decreased motor activity, occasional partial ptosis, occasional head drop
[4] = tested on: Monkey; test: The compound was evaluated for the rating of psychotropic effects in rhesus monkey at a dose of 1 mg/Kg; value is (-) No change
[5] = tested on: Monkey; test: The compound was evaluated for the rating of psychotropic effects in rhesus monkey at a dose of 5 mg/Kg; value is (-) No change
[6] = tested on: Monkey; test: The compound was evaluated for the rating of psychotropic effects in rhesus monkey at a dose of 2 mg/Kg; value is (+) drowsiness, decreased motor activity, occasional partial ptosis, occasional head drop
[7] = tested on: Monkey; test: The compound was evaluated for the rating of psychotropic effects in rhesus monkey at a dose of 0.5 mg/Kg; value is (++) stupor, ataxia, suppression of motor activity, full ptosis
[8] = tested on: Monkey; test: The compound was evaluated for the rating of psychotropic effects in rhesus monkey at a dose of 0.1 mg/Kg; value is (+/-) tranquility
[9] = tested on: Monkey; test: The compound was evaluated for the rating of psychotropic effects in rhesus monkey at a dose of 0.25 mg/Kg; value is (++) stupor, ataxia, suppression of motor activity, full ptosis
[10] = tested on: Monkey; test: The compound was evaluated for the rating of psychotropic effects in rhesus monkey at a dose of 2 mg/Kg; value is (-) No change
[11] = tested on: Monkey; test: The compound was evaluated for the rating of psychotropic effects in rhesus monkey at a dose of 5 mg/Kg; value is (+) drowsiness, decreased motor activity, occasional partial ptosis, occasional head drop
[12] = tested on: Monkey; test: The compound was evaluated for the rating of psychotropic effects in rhesus monkey at a dose of 2 mg/Kg; value is (++) stupor, ataxia, suppression of motor activity, full ptosis
[13] = tested on: Monkey; test: The compound was evaluated for the rating of psychotropic effects in rhesus monkey at a dose of 0.05 mg/Kg; value is (-) No change
[14] = tested on: Monkey; test: The compound was evaluated for the rating of psychotropic effects in rhesus monkey at a dose of 0.1 mg/Kg; value is (++) stupor, ataxia, suppression of motor activity, full ptosis

CCCCCc1cc(O)c2c(c1)OC(C)(C)[C@@H]1C[C@H](O)[C@H](C)CC21 (stereo not given in full)
Activity [1]: drowsiness, decreased motor activity, occasional partialptosis,occasional head drop | Activity [2]: inactive | Activity [3]: drowsiness, decreased motor activity, occasional partialptosis,occasional head drop

CCCCCc1cc(O)c2c(c1)OC(C)(C)[C@@H]1CC(O)[C@H](C)CC21 (stereo not given in full)
Activity [4]: inactive | Activity [5]: inactive

CCCCCc1cc(O)c2c(c1)OC(C)(C)[C@@H]1CC[C@H](C)C(O)C21 (stereo not given in full)
Activity [4]: inactive | Activity [5]: inactive

CCCCCc1cc(O)c2c(c1)OC(C)(C)[C@@H]1CC[C@H](C)CC21 (stereo not given in full)
Activity [4]: inactive | Activity [6]: drowsiness, decreased motor activity, occasional partial ptosis, occasional head drop

CCCCCc1cc(OC(C)=O)c2c(c1)OC(C)(C)[C@@H]1CC[C@H](COC(C)=O)CC21 (stereo not given in full)
Activity [4]: inactive | Activity [5]: inactive

CCCCCc1cc(O)c2c(c1)OC(C)(C)[C@@H]1CC=C(C)CC21 (stereo not given in full)
Activity [7]: Active | Activity [8]: inactive | Activity [9]: Active

CCCCCc1cc(O)c2c(c1)OC(C)(C)[C@@H]1CCC(C)[C@H](O)C21 (stereo not given in full)
Activity [4]: inactive | Activity [10]: inactive | Activity [11]: drowsiness, decreased motor activity, occasional partial ptosis, occasional head drop

CCCCCc1cc(OC(C)=O)c2c(c1)OC(C)(C)[C@@H]1CCC(COC(C)=O)CC21 (stereo not given in full)
Activity [1]: drowsiness, decreased motor activity, occasional partial ptosis, occasional head drop | Activity [3]: drowsiness, decreased motor activity, occasional partial ptosis, occasional head drop

CCCCCc1cc(O)c2c(c1)OC(C)(C)[C@@H]1CC[C@H](C)[C@H](O)C21 (stereo not given in full)
Activity [1]: drowsiness, decreased motor activity, occasional partial ptosis, occasional head drop | Activity [12]: drowsiness, decreased motor activity, occasional partial ptosis, occasional head drop | Activity [3]: drowsiness, decreased motor activity, occasional partial ptosis, occasional head drop

CCCCCc1cc(O)c2c(c1)OC(C)(C)[C@@H]1CC[C@@H](C)CC21 (stereo not given in full)
Activity [7]: stupor,ataxia, suppression of motor activity, full ptosis | Activity [8]: +/-

CCCCCc1cc(O)c2c(c1)OC(C)(C)[C@@H]1CCC(C)=C[C@@H]21
Activity [13]: inactive | Activity [14]: Active | Activity [9]: Active

CCCCCc1cc(O)c2c(c1)OC(C)(C)[C@@H]1C[C@H](O)C(C)CC21 (stereo not given in full)
Activity [4]: inactive | Activity [10]: inactive | Activity [5]: inactive
